Source: the CheMixHub viscosity set

Test: xn = mol fraction of the nth substance listed

O=S=O + Cc1cc(C)cc(C)c1
298.15 K, 101 kPa
Details | viscosity [mPa·s]
x1 = 0.137 | 0.6381
x1 = 0.223 | 0.6062
x1 = 0.255 | 0.5926

Cc1cc(C)cc(C)c1 + Cc1ccccc1
viscosity [mPa·s]
Details | 100 kPa | 101.33 kPa
298.15 K, x2 = 0.5 | 0.5957 | 0.5957
298.24 K, x2 = 0.8 | 0.5709 | 0.5709
303.16 K, x2 = 0.5 | – | 0.5616
303.18 K, x2 = 0.8 | – | 0.5394
307.82 K, x2 = 0.8 | – | 0.5125
308.22 K, x2 = 0.5 | – | 0.5315
313.14 K, x2 = 0.5 | 0.505 | 0.505
313.26 K, x2 = 0.8 | 0.4837 | 0.4837
317.67 K, x2 = 0.8 | – | 0.4619
318.09 K, x2 = 0.5 | – | 0.4792
322.66 K, x2 = 0.8 | – | 0.4389
322.74 K, x2 = 0.5 | – | 0.4583

O=S=O + Cc1ccccc1
298.15 K, 101 kPa
Details | viscosity [mPa·s]
x1 = 0.0185 | 0.5449
x1 = 0.0455 | 0.5339
x1 = 0.104 | 0.5121
x1 = 0.1897 | 0.4881

Cc1cc(C)cc(C)c1 + ClC(Cl)(Cl)Cl
298.15 K, 101 kPa
Details | viscosity [mPa·s]
x1 = 0.1 | 0.8579
x1 = 0.2 | 0.8194
x1 = 0.3 | 0.7889
x1 = 0.4 | 0.7637
x1 = 0.5 | 0.7421
x1 = 0.6 | 0.7226
x1 = 0.7 | 0.7044
x1 = 0.8 | 0.6875
x1 = 0.9 | 0.672

O=S=O + ClC(Cl)(Cl)Cl
298.15 K, 101 kPa
Details | viscosity [mPa·s]
x1 = 0.00784 | 0.8572
x1 = 0.0163 | 0.841
x1 = 0.0185 | 0.8352
x1 = 0.0267 | 0.82

O=S=O + ClC(Cl)Cl
298.15 K, 101 kPa
Details | viscosity [mPa·s]
x1 = 0.0035 | 0.5141
x1 = 0.004762 | 0.5053
x1 = 0.00539 | 0.5022

OCCCCO + NC=O
Details | viscosity [mPa·s]
318.15 K, 101 kPa, x2 = 0.1052 | 18.95

O=P([O-])([O-])O.[Na+].[Na+] + O
viscosity [mPa·s]
Details | 293.15 K | 298.15 K | 303.15 K | 308.15 K
100 kPa, x1 = 0.01115 | – | 1.215 | 1.095 | –
100 kPa, x1 = 0.01333 | 1.455 | – | – | –
100 kPa, x1 = 0.01698 | – | – | – | 1.175
101 kPa, x1 = 0.0018 | – | 0.948 | 0.8587 | 0.7663
101 kPa, x1 = 0.0054 | – | 1.05 | 0.968 | 0.8559
101 kPa, x1 = 0.0089 | – | 1.232 | 1.076 | 0.94
101 kPa, x1 = 0.012 | – | 1.441 | 1.228 | 1.152
101 kPa, x1 = 0.016 | – | 1.727 | 1.536 | 1.452

OCCOCCOCCOCCOCCOCCO + O
viscosity [mPa·s], 100 kPa
Details | 293.15 K | 298.15 K | 303.15 K | 308.15 K | 313.15 K | 318.15 K | 323.15 K
x2 = 0.086 | 84.1 | 63.85 | 49.38 | 39.16 | 31.47 | 25.71 | 21.3
x2 = 0.154 | 83.43 | 63.21 | 48.95 | 38.71 | 31.12 | 25.38 | 21.01
x2 = 0.191 | 79.58 | 61.16 | 47.41 | 37.44 | 30.09 | 24.56 | 20.43
x2 = 0.222 | 81.84 | 62.01 | 47.77 | 37.78 | 30.44 | 24.83 | 20.66
